From US8178077B2, “Drug development target protein and target gene, and method of screening” (Reverse Proteomics Research Institute Co., Ltd., priority 2004, dated 2012) come the findings set out here.

The target of this assay is T1, FLJ39196 clone-derived protein (human neurocalcin δ) (Homo sapiens, UniProt P61601).
T1 construct: A human full-length cDNA clone was expressed as a protein with an N-terminal His tag; His tag (N); made in house; host or cells: Escherichia coli BL21star(DE3)pLysS (pDEST17 Gateway expression plasmid)
The experiment in a line: SEC/MS interaction analysis (size exclusion spin column and mass analysis) with FLJ39196 clone-derived protein. It counts as binding. An excerpt: To analyze the interactions between commonly used drugs and proteins expressed from human full-length cDNA clones while keeping both the proteins and the compounds in non-modified, non-immobilized state, size exclusion chromatography (SEC) and mass analysis were used in combination (FIGS. 1, 2). The specific procedures are shown below.
The compound-protein mixture prepared in step 1 was subjected to chromatography using an SEC column, the compound and the protein were separated by SEC, and the compound that interacted with the bound compound or protein contained in the protein fraction was analyzed using a mass analyzer.
Protein concentrations were measured using BCA Protein Assay (PIERCE), in consideration of the purity calculated by SDS-PAGE.
Mass analysis was performed using LCQ DECA XP (Thermoelectron) or Q-TOFmicro (Micromass), equipped with an ESI probe. The LC pump used was Agilent 1100 (Yokogawa Analytical Systems), and the autosampler used was HTC-PAL (CTC Analytics) equipped with a cooling stacker.
In the SEC method using 384-well spin columns, Unifilter 100 (Whatman), packed with 10 μL (dry volume) of Bio-Gel P6 (BIO-RAD) and swollen with milliQ water, was used as the SEC column. 13.3 μL of a protein-free reference standard or a 25 μM protein standard and 0.7 μL of a multiplied liquid comprising 25 μM of each pharmaceutical compound (5% DMSO aqueous solution) were mixed; 9 μL of this mixture was aliquoted into the SEC spin columns. The SEC spin column was mounted on an acetonitrile-aliquoted 384-well U-bottom plate and centrifuged; the SEC spin column filtrate, which is a protein fraction, was retrieved in 50% acetonitrile. The protein precipitate produced by the acetonitrile was removed via centrifugation and filtration for deproteinization; the resulting filtrate was concentrated by centrifugation and re-dissolved in 10 μL of 50% methanol to obtain a mass analysis sample. The mobile phase supplied to the mass analyzer was 0.1% formic acid/50% methanol solution in the positive ion mode, and 0.1% ammonia/50% methanol solution in the negative ion mode; these mobile phases were used at a flow rate of 40 μL/min. 2-μL of mass analysis samples were injected using an autosampler at 2-minute intervals; the mass spectral intensity of the compound was measured to obtain the spectral intensity of the pharmaceutical compound contained in the SEC spin column filtrate (protein fraction eluted from SEC).
In general terms: In gel filtration, larger molecules generally elute earlier.

The mark [1] stands for this setting: protein 0 μM (protein-free reference), compound 1 μM.
The mark [2] stands for this setting: protein 0 μM (protein-free reference), compound 10 μM.
The mark [3] stands for this setting: protein 0 μM (protein-free reference), compound 100 μM.
Setting [4] is: protein 0 μM (protein-free reference), compound 250 μM.
Setting [5] is: protein 23.75 μM, compound 1 μM.
The mark [6] stands for this setting: protein 23.75 μM, compound 10 μM.
[7] abbreviates: protein 23.75 μM, compound 100 μM.
Where [8] appears, read: protein 23.75 μM, compound 250 μM.
Setting [9] is: protein 47.5 μM, compound 10 μM.
The mark [10] stands for this setting: protein 47.5 μM, compound 100 μM.
Setting [11] is: protein 47.5 μM, compound 250 μM.

Regarding `Clc1ccc(C(OCCN2CCCCC2)c2ccccc2)cc1` (stereo not drawn) [chloperastine], the “spectral intensity of the compound in the SEC spin column filtrate (protein fraction)” value (“spectral intensity … (protein fraction)” below) is 2920008 under setting [1]; 13165487 under setting [2]; 276180260 under setting [3]; 803023959 under setting [4]; 2972794 under setting [5]; 9288224 under setting [6]. The “spectral intensity … (protein fraction)” value reads like this: under setting [7], 218420294; under setting [8], 773924506; (protein 47.5 μM, compound 1 μM) 4085344; under setting [9], 18612563; under setting [10], 338617522; under setting [11], 1411536255.

`CN1CCC(=C2c3ccccc3Sc3ccccc32)CC1` [Pimethixene]: the “spectral intensity … (protein fraction)” value by setting is: under setting [1], 2913965; under setting [2], 4868887; under setting [3], 58800844; under setting [4], 224525009; under setting [5], 2449690; under setting [6], 5737072. Also, the “spectral intensity … (protein fraction)” value is on record as 121577640 under setting [7]; 265475649 under setting [8]; 2762592 (protein 47.5 μM, compound 1 μM); 9271060 under setting [9]; 197624997 under setting [10]; 359356100 under setting [11].

Regarding `NS(=O)(=O)c1cc2c(cc1Cl)N=C(CSCc1ccccc1)NS2(=O)=O` [Benzthiazide], the “spectral intensity … (protein fraction)” value under setting [1] was found to be 271261; the “spectral intensity … (protein fraction)” value under setting [2] was determined as 505597; the “spectral intensity … (protein fraction)” value under setting [3] is 1323031; the “spectral intensity … (protein fraction)” value under setting [4] is reported as 1475428; the “spectral intensity … (protein fraction)” value under setting [5] came out at 361168; the “spectral intensity … (protein fraction)” value under setting [6] stood at 1095223. For the same molecule, the “spectral intensity … (protein fraction)” value under setting [7] was 9348303; the “spectral intensity … (protein fraction)” value under setting [8] is 25333199; the “spectral intensity … (protein fraction)” value (protein 47.5 μM, compound 1 μM) was 249695; the “spectral intensity … (protein fraction)” value under setting [9] was found to be 1261413; the “spectral intensity … (protein fraction)” value under setting [10] is on record as 16067473; the “spectral intensity … (protein fraction)” value under setting [11] is 28434802.

Regarding `C[C@]12Cc3c[nH]nc3C[C@@H]1CC[C@@H]1[C@@H]2CC[C@@]2(C)[C@H]1CC[C@]2(C)O` [stanozolol], the “spectral intensity … (protein fraction)” value is, setting by setting: under setting [1], 3108300; under setting [2], 2749518; under setting [3], 3830491; under setting [4], 4150230; under setting [5], 3620481; under setting [6], 10223886. Also, the “spectral intensity … (protein fraction)” value by setting is: under setting [7], 127989356; under setting [8], 194560574; (protein 47.5 μM, compound 1 μM) 3989532; under setting [9], 25533379; under setting [10], 619287498; under setting [11], 778914733.

`COC(=O)[C@H]1[C@H]2C[C@@H]3c4[nH]c5cc(OC)ccc5c4CCN3C[C@H]2C[C@@H](OC(=O)/C=C/c2cc(OC)c(OC)c(OC)c2)[C@@H]1OC` [Rescinnamine]: the “spectral intensity … (protein fraction)” value is, setting by setting: under setting [1], 9843174; under setting [2], 6544896; under setting [3], 12903374; under setting [4], 7315419; under setting [5], 11269941; under setting [6], 21895843. In addition, the “spectral intensity … (protein fraction)” value was determined as 215933519 under setting [7]; 288844471 under setting [8]; 17653515 (protein 47.5 μM, compound 1 μM); 40677751 under setting [9]; 675671326 under setting [10]; 1469409087 under setting [11].

Regarding `CC(C)/N=c1\cc2n(-c3ccc(Cl)cc3)c3ccccc3nc-2cc1Nc1ccc(Cl)cc1` [clofazimine], the “spectral intensity … (protein fraction)” value under setting [1] amounted to 1592610; the “spectral intensity … (protein fraction)” value under setting [2] stood at 3306068; the “spectral intensity … (protein fraction)” value under setting [3] is 1781607; the “spectral intensity … (protein fraction)” value under setting [4] was 1742291; the “spectral intensity … (protein fraction)” value under setting [5] is given as 2041846; the “spectral intensity … (protein fraction)” value under setting [6] amounted to 15886830. The “spectral intensity … (protein fraction)” value under setting [7] stood at 138678443; the “spectral intensity … (protein fraction)” value under setting [8] is reported as 380425425; the “spectral intensity … (protein fraction)” value (protein 47.5 μM, compound 1 μM) came out at 2399851; the “spectral intensity … (protein fraction)” value under setting [9] came to 57730302; the “spectral intensity … (protein fraction)” value under setting [10] was found to be 312686548; the “spectral intensity … (protein fraction)” value under setting [11] is 411373516.

`CC(C)[C@@]1(NC(=O)[C@@H]2C[C@@H]3c4cccc5[nH]cc(c45)C[C@H]3N(C)C2)O[C@@]2(O)[C@@H]3CCCN3C(=O)[C@H](Cc3ccccc3)N2C1=O` [Dihydroergocristine]: the “spectral intensity … (protein fraction)” value was determined as 25663523 under setting [1]; 10810305 under setting [2]; 75466444 under setting [3]; 137535150 under setting [4]; 68120944 under setting [5]; 327393156 under setting [6]. Besides, the “spectral intensity … (protein fraction)” value is, setting by setting: under setting [7], 910395859; under setting [8], 871970698; (protein 47.5 μM, compound 1 μM) 95970671; under setting [9], 593118709; under setting [10], 1961163889; under setting [11], 2985742521.
